Test results reported in patent US5684151A, “1-arylsulphonyl, arylcarbonyl and 1-arylphosphonyl-3-phenyl-1,4,5,6-tetrahydropyridazines” (priority 1995, dated 1997).
pIC50: −log10 of the molar value. Like-named read-outs stand apart in the source and are kept apart here.

What was measured:
[1] = target: T1, progestin receptor from rabbit uterus (Oryctolagus cuniculus, UniProt P06186); experiment: Progestin receptor binding (3H-R5020 displacement); settings: rabbit uterine cytosol, 4° C., 18 h, read-out: IC50: Binding affinity for the progestin receptor from rabbit uterus
T1 construct: Cytosolic progestin receptor were obtained by mixing rabbit uterine tissue with a Tris buffer; from tissue; host or cells: rabbit uterus cytosol
T1 sequence (P06186 whole entry): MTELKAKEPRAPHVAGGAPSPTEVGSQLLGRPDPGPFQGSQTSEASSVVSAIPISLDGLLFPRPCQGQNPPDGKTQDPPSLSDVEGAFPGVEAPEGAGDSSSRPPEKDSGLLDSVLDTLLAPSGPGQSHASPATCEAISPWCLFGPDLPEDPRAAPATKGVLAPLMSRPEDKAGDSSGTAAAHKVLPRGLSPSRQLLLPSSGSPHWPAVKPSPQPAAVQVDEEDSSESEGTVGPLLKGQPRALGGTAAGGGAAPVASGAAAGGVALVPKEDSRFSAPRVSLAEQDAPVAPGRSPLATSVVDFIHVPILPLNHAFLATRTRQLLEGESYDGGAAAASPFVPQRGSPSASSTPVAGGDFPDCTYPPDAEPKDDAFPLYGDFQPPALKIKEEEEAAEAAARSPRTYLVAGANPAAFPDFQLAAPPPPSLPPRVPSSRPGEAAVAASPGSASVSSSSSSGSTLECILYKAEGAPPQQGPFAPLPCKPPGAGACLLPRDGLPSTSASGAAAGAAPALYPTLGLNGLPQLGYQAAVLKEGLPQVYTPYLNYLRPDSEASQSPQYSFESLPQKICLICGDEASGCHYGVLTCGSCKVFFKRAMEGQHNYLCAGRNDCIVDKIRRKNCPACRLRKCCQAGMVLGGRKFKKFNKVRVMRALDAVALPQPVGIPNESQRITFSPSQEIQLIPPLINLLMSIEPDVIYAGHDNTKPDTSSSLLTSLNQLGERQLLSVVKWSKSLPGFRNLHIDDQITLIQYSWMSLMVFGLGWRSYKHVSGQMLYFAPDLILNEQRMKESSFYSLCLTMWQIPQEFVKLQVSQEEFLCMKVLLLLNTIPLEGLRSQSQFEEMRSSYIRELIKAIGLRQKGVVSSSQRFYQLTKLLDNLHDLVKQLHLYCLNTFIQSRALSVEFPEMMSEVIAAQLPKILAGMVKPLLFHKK
How it was run: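 Rabbit uterine cytosol in Tris buffer pH 7.4 with EDTA, DTT and molybdate was incubated with 3H-R5020 and test compound (5% DMSO final) at 4 °C for about 18 h. Bound ligand was separated with dextran-coated charcoal and counted by scintillation; IC50 is 50% radioligand displacement, with nonspecific binding defined by excess unlabelled ligand.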

[2] = test system: mouse (MC3T3-E1) and human (TE-85) osteoblast-line cells; type: cell-based
How it was run: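 MC3T3-E1 or TE-85 cells were plated overnight in DMEM/25 mM HEPES/10% FBS and then preincubated 24 h in 0.1% FBS. Compounds were added for 20 h, followed by a 4 h pulse of 0.4 μCi ^3H-thymidine. Incorporated radioactivity served as the proliferation index, expressed as % of control (control = 100%).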

[3] = test system: Human T47D breast carcinoma cells; experiment: Ex vivo progestational test (T47D proliferation); type: cell-based; settings: SC200, 3H-thymidine incorporation
Description: The progestational activity of the compounds was accessed by their ability to stimulate proliferation of human breast carcinoma cells. Proliferation was measured as the ability to stimulate ^3 H-thymidine incorporation into these cells in vitro. Human T47D breast carcinoma cells (American Type Tissue Collection #133-HTB) were maintained in media consisting or RPMI 1640 supplemented with 10% fetal bovine serum, 10 ug/ml insulin, 10 U/ml pennicillin, 100 ug/ml streptomycin, and 2 mM L-glutamine. Monolayer cell cultures were trypsinized and washed in assay media consisting of phenol red-free RPMI 1640 supplemented with 5% charcoal-stripped, fetal bovine serum, and the other ingredients listed above. Cells were then plated in a 96-well plate. After a 48-hour incubation period at 37° C., the conditioned media was removed and replaced with fresh media containing test compounds in DMSO (0.1% DMSO final concentration). The cell cultures were incubated for 18 to 20 hours at 37° C. ^3 H-thymidine was then added to each well and the cell cultures were incubated at 37° C. for an additional 4 hours. Labelling was stopped by addition of un labelled thymidine. The cultures were washed twice, trypsinized and then harvested onto a filter mat. Incorporated ^3 -H-thymidine was measured by liquid scintillation counting. Data was expressed as a percent stimulation above control level which was set at 100%. An SC200 value was calculated as the concentration of test material needed to stimulate ^3 H-thymidine incorporation 200% of control.
Aspects of the application of the procedure used are described in the following: C. Christensen, D. Gunter, D. Saunders and V. Malviya, Gynecol. Oncol., 28, 25 (1987); J. Puzas, R. Drivdahl, G. Howard and D. Baylink, Proc. Soc. Exp. Biol. Med., 166, 113 (1981); and I. Keydar, L. Chen, S. Karby, F. Weiss, J. Delarea, M. Raduy, S. Chaitcik and H. Brenner, Eur. J. Cancer, 15, 659 (1979)

mature female rabbits = experiment: Additional test to determine bone growth activity (bone density by dual X-ray densitometry); type: in vivo, rabbit; settings: oral once daily, 12 weeks, vs vehicle treated control
Description: Test compounds were orally administered once daily to mature female rabbits for 12 weeks. Bone density was measured by dual X-ray densitometry and results were expressed as % base line bone mineral content.

`O=C(c1ccc(Cl)c(Cl)c1)N1CCCC(c2ccccc2)=N1` [Compound 185, 1-(3,4-dichlorobenzoyl)-3-phenyl-1,4,5,6-tetrahydropyridazine] was tested, and the pIC50 [1] was 5.45, the “Osteoblast Cell Proliferation, 3H-thymidine incorporation vs control (100%)” value (“Osteoblast Cell Proliferation … (100%)” for short) ([2]; 10^-6) was 98% and the “Osteoblast Cell Proliferation … (100%)” value ([2]; 10^-7) was 136%. The “Osteoblast Cell Proliferation … (100%)” value ([2]; 10^-8) was 147%, the “Osteoblast Cell Proliferation … (100%)” value ([2]; 10^-9) was 131% and the “Osteoblast Cell Proliferation … (100%)” value ([2]; 10^-10) was 128%. The “T47D: Concentration to elicit a 200% increase in T47D Human breast cell proliferation” value [3] was 10000 and the bone mineral content (mature female rabbits) was “significant increase in bone mineral content”.
